Results reported in patent publication US12612407B2, “Imidazo[2,1-f][1,2,4]triazin-4-amine derivatives as TLR7 agonist” (BEIGENE, LTD., priority 2020, dated 2026).

Biological target: T1, human TLR7 (Homo sapiens, UniProt Q9NYK1)
T1 construct: host or cells: HEK293 (HEK-Blue hTLR7)
T1 sequence (Q9NYK1 27-1049): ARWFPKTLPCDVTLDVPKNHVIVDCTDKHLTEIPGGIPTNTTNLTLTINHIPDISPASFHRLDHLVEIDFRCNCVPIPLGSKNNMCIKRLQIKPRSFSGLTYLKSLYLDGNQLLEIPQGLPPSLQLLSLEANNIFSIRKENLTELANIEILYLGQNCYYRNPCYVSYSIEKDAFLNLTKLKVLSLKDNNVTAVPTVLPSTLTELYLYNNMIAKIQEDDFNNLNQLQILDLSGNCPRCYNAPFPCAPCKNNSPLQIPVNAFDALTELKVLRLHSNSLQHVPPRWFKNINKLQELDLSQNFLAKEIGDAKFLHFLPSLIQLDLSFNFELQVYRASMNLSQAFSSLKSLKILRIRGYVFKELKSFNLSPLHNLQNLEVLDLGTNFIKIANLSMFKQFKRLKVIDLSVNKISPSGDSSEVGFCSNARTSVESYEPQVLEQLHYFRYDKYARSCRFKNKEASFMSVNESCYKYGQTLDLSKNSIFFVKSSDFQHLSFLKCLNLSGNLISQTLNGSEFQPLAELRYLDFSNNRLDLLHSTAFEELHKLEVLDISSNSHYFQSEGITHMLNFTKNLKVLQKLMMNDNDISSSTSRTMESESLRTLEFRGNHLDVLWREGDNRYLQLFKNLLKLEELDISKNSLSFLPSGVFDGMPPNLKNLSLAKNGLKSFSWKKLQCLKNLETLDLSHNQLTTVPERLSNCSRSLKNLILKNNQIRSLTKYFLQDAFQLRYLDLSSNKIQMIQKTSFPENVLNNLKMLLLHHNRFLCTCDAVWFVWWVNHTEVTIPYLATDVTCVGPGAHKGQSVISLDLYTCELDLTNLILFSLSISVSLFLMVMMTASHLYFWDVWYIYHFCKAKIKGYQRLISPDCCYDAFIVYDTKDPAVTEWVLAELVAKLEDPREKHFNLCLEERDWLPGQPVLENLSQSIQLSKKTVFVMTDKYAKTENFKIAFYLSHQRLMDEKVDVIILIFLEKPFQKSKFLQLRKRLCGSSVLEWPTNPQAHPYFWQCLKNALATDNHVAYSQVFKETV
Assay: HEK293-Blue hTLR7 Reporter Assay (QUANTI-BLUE, SEAP readout)
Type: cell-based
Settings: HEK-Blue-hTLR7 cells, 24 hrs treatment, Table 1, B1-B232
Procedure, shortened: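 HEK-Blue-hTLR7 cells expressing NF-κB/AP-1-driven SEAP, 4×10^4 cells/well, treated 24 h at 37° C with increasing compound concentrations. Supernatant SEAP measured with Quanti-blue substrate (10-30 min, 37° C) at 620-655 nm; EC50 from sigmoidal dose-response fit.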

| SMILES | EC50 |
| --- | --- |
| CCCCOc1nc(N)c2ncc(Cc3cnc(N4CCC(CNC)CC4)c(C)c3)n2n1 [Compound B106, 2-butoxy-7-((5-methyl-6-(4-((methylamino)methyl)piperidin-1-yl)pyridine-3-yl)methyl)imidazo[2,1-f][1,2,4]triazin-4-amine] | 71 nM |
| CCCCOc1nc(N)c2ncc(Cc3cnc(N4CCN(CCOC)CC4)c(C)c3)n2n1 [Compound B107, 2-butoxy-7-((6-(4-(2-methoxyethyl)piperazin-1-yl)-5-methylpyridin-3-yl)methyl)imidazo[2,1-f][1,2,4]triazin-4-amine] | 185 nM |
| CCCCOc1nc(N)c2ncc(Cc3cnc(N4CCC(N5CCOCC5)CC4)c(C)c3)n2n1 [Compound B108, 2-butoxy-7-((5-methyl-6-(4-morpholinopiperidin-1-yl)pyridine-3-yl)methyl)imidazo[2,1-f][1,2,4]triazin-4-amine] | 159 nM |
| CCCCOc1nc(N)c2ncc(Cc3cnc(N4CCC(CN5CCOCC5)CC4)c(C)c3)n2n1 [Compound B109, 2-butoxy-7-((5-methyl-6-(4-(morpholinomethyl)piperidin-1-yl)pyridin-3-yl)methyl)imidazo[2,1-f][1,2,4]triazin-4-amine] | 161 nM |
| CCCCOc1nc(N)c2ncc(Cc3cnc(N4CCC(CCN(C)C)CC4)c(C)c3)n2n1 [Compound B110, 2-butoxy-7-((6-(4-(2-(dimethylamino)ethyl)piperidin-1-yl)-5-methylpyridin-3-yl)methyl)imidazo[2,1-f][1,2,4]triazin-4-amine] | 43 nM |
| CCCC(C)Oc1nc(N)c2ncc(Cc3cnc(N4CCN(C(=O)CNC)CC4)c(C)c3)n2n1 (centres unmarked) [Compound B111, 1-(4-(5-((4-amino-2-(pentan-2-yloxy)imidazo[2,1-f][1,2,4]triazin-7-yl)methyl)-3-methylpyridin-2-yl)piperazin-1-yl)-2-(methylamino)ethan-1-one] | 9.8 nM |
| CCC(C)Oc1nc(N)c2ncc(Cc3cnc(N4CCNCC4)c(C)c3)n2n1 (centres unmarked) [Compound B112, 2-(sec-butoxy)-7-((5-methyl-6-(piperazin-1-yl)pyridin-3-yl)methyl)imidazo[2,1-f][1,2,4]triazin-4-amine] | 37 nM |
| CCC(C)COc1nc(N)c2ncc(Cc3cnc(N4CCNCC4)c(C)c3)n2n1 (centres unmarked) [Compound B113, 7-((5-methyl-6-(piperazin-1-yl)pyridin-3-yl)methyl)-2-(2-methylbutoxy)imidazo[2,1-f][1,2,4]triazin-4-amine] | 447 nM |
| CCCCOc1nc(N)c2ncc(Cc3cnc(N4CCN(CC)CC4)c(C)c3)n2n1 [Compound B114, 2-butoxy-7-((6-(4-ethylpiperazin-1-yl)-5-methylpyridin-3-yl)methyl)imidazo[2,1-f][1,2,4]triazin-4-amine] | 168 nM |
| CCCCOc1nc(N)c2ncc(Cc3cnc(N4CCN(CCc5ccccc5)CC4)c(C)c3)n2n1 [Compound B116, 2-butoxy-7-((5-methyl-6-(4-phenethylpiperazin-1-yl)pyridin-3-yl)methyl)imidazo[2,1-f][1,2,4]triazin-4-amine] | 1190 nM |
| CCC[C@@H](C)Oc1nc(N)c2ncc(Cc3cnc(N4CCNCC4)c(C)c3)n2n1 [Compound B117, (R)-7-((5-methyl-6-(piperazin-1-yl)pyridin-3-yl)methyl)-2-(pentan-2-yloxy)imidazo[2,1-f][1,2,4]triazin-4-amine] | 62 nM |
| COCCOCCOc1nc(N)c2ncc(Cc3cnc(N4CCNCC4)c(C)c3)n2n1 [Compound B119, 2-(2-(2-methoxyethoxy)ethoxy)-7-((5-methyl-6-(piperazin-1-yl)pyridin-3-yl)methyl)imidazo[2,1-f][1,2,4]triazin-4-amine] | > 10000 nM |
| COCCOCCOCCOCCOCCOCCOc1nc(N)c2ncc(Cc3cnc(N4CCNCC4)c(C)c3)n2n1 [Compound B120, 2-((2,5,8,11,14,17-hexaoxanonadecan-19-yl)oxy)-7-((5-methyl-6-(piperazin-1-yl)pyridin-3-yl)methyl)imidazo[2,1-f][1,2,4]triazin-4-amine] | > 10000 nM |
| CCCCOc1nc(N)c2ncc(Cc3cnc(N4CCC(CN5CCCC5)CC4)c(C)c3)n2n1 [Compound B121, 2-butoxy-7-((5-methyl-6-(4-(pyrrolidin-1-ylmethyl)piperidin-1-yl)pyridin-3-yl)methyl)imidazo[2,1-f][1,2,4]triazin-4-amine] | 31 nM |
| CCC[C@@H](C)Oc1nc(N)c2ncc(Cc3cnc(N4CCN(C(=O)CN(C)C)CC4)c(C)c3)n2n1 [Compound B124, (R)-1-(4-(5-((4-amino-2-(pentan-2-yloxy)imidazo[2,1-f][1,2,4]triazin-7-yl)methyl)-3-methylpyridin-2-yl)piperazin-1-yl)-2-(dimethylamino)ethan-1-one] | 51 nM |
| CCC[C@H](C)Oc1nc(N)c2ncc(Cc3cnc(N4CCN(C(=O)CN(C)C)CC4)c(C)c3)n2n1 [Compound B125, (S)-1-(4-(5-((4-amino-2-(pentan-2-yloxy)imidazo[2,1-f][1,2,4]triazin-7-yl)methyl)-3-methylpyridin-2-yl)piperazin-1-yl)-2-(dimethylamino)ethan-1-one] | 2.5 nM |
| CCCCOc1nc(N)c2ncc(Cc3cnc(N4CCC(CN(CC)CC)CC4)c(C)c3)n2n1 [Compound B126, 2-butoxy-7-((6-(4-((diethylamino)methyl)piperidin-1-yl)-5-methylpyridin-3-yl)methyl)imidazo[2,1-f][1,2,4]triazin-4-amine] | 22 nM |
| CCC[C@@H](C)Oc1nc(N)c2ncc(Cc3cnc(N4CCC(N(C)C)CC4)c(C)c3)n2n1 [Compound B127, (R)-7-((6-(4-(dimethylamino)piperidin-1-yl)-5-methylpyridin-3-yl)methyl)-2-(pentan-2-yloxy)imidazo[2,1-f][1,2,4]triazin-4-amine] | 56 nM |
| CCC[C@@H](C)Oc1nc(N)c2ncc(Cc3cnc(N4CCC(CN(C)C)CC4)c(C)c3)n2n1 [Compound B128, (R)-7-((6-(4-((dimethylamino)methyl)piperidin-1-yl)-5-methylpyridin-3-yl)methyl)-2-(pentan-2-yloxy)imidazo[2,1-f][1,2,4]triazin-4-amine] | 41 nM |
| CCCCCCCCCCCCCCCCCC(=O)N1CCN(c2ncc(Cc3cnc4c(N)nc(OCCCC)nn34)cc2C)CC1 [Compound B129, 1-(4-(5-((4-amino-2-butoxyimidazo[2,1-f][1,2,4]triazin-7-yl)methyl)-3-methylpyridin-2-yl)piperazin-1-yl)octadecan-1-one] | > 10000 nM |
| CCCCOc1nc(N)c2ncc(Cc3cnc(N4CCC(N5CCN(C)CC5)CC4)c(C)c3)n2n1 [Compound B130, 2-butoxy-7-((5-methyl-6-(4-(4-methylpiperazin-1-yl)piperidin-1-yl)pyridin-3-yl)methyl)imidazo[2,1-f][1,2,4]triazin-4-amine] | 38 nM |
| CCCCOc1nc(N)c2ncc(Cc3cnc(N4CCC5(CCNCC5)CC4)c(C)c3)n2n1 [Compound B131, 2-butoxy-7-((5-methyl-6-(3,9-diazaspiro[5.5]undecan-3-yl)pyridin-3-yl)methyl)imidazo[2,1-f][1,2,4]triazin-4-amine] | 98 nM |
| CCCCOc1nc(N)c2ncc(Cc3cnc(N4CCN[C@@H](C)C4)c(C)c3)n2n1 [Compound B132, (S)-2-butoxy-7-((5-methyl-6-(3-methylpiperazin-1-yl)pyridin-3-yl)methyl)imidazo[2,1-f][1,2,4]triazin-4-amine] | 48 nM |
